According to US10597398B2, “Suppression and regeneration promoting effect of low molecular weight compound on cancer and fibrosis” (NATIONAL UNIVERSITY CORPORATION TOTTORI UNIVERSITY, priority 2015, dated 2020):

Assays:
[1] = system: HSC2 cells (squamous cell carcinoma cells); test: Growth of squamous cell carcinoma cells (Cell Counting Kit-8); assay type: cell-based; settings: HSC2 cells, 0, 24, 72, 96 h
Description: HSC2 cells (squamous cell carcinoma cells) were seeded at 2.5×10^3 cells/well of a 96-well plate (TPP Techno Plastic Products AG, Trasadingen, Switzerland). Next, 0, 24, 72, and 96 h after that, 100 μL of 10% Cell Counting Kit-8 (DOJINDO LABORATORIES, Kumamoto) was added. The mixture was incubated at 37° C. and its absorbance (at a measurement wavelength of 450 nm/control wavelength of 600 nm) was measured by using a Sunrise Rainbow RC (Tecan Group Ltd., Mannedorf, Switzerland).

[2] = system: CD44-expressing HSC2 cells; test: CD44-expressing cells in HSC2 cells (cell sorter analysis); assay type: cell-based, human; settings: 48 h, 25 μM IC-2 or 0.5 μM 5-FU, 83.9% without treatment
Description: In addition, HSC2 cells were seeded at 5×10^5 cells/10-cm cell culture dish (TPP). After 24 h, the cells were treated with 0.5 μM of 5-FU or 25 μM of IC-2. Also prepared were cells without low-molecular-weight compound treatment (0 μM). After additional 48 h, the respective cells were harvested. As a primary antibody, used was a mouse anti-human CD44 antibody (Abcam Ltd., Cambridge, UK). Then, Alexa Fluor 488-labeled goat anti-mouse IgG (H+L) (Life Technologies Corp., Carlsbad, Calif.) was used. After that, a cell sorter BD bioscience FACS Aria (Becton, Dickinson and Company, Franklin Lakes, N.J.) was used for analysis.

CD44high DLD-1 cells = test: CD44high cells in DLD-1 cells (FCM analysis); assay type: cell-based, human; settings: 48 h, 50 μM IC-2, 0.5 or 5 μM 5-FU, compared with control
Description: In addition, DLD-1 cells were seeded at 1×10^6 cells/10-cm cell culture dish. After 24 h, the cells were treated with 0.5 or 5 μM of 5-FU or 50 μM of IC-2. At additional 48 h, the cells were harvested. As a primary antibody, used was a mouse anti-human CD44 antibody (Abcam Ltd., Cambridge, UK). Then, Alexa Fluor 488-labeled goat anti-mouse IgG (H+L) (Life Technologies Corp., Carlsbad, Calif.) was used. After that, a MoFlo XDP (Beckman Coulter Inc., Fullerton, Calif.) was used for analysis.

Wnt/β-catenin signal = settings: as described in Patent Literature 1; cited from earlier work
mesenchymal stem cell = test: Hepatocyte differentiation-inducing effect, summary statements on Example 4 (readout not specified); assay type: cell-based, human; settings: low concentration
Excerpt: Albumin, a hepatocyte marker, was used as an indicator, and RNA was collected from cells treated with each compound. Next, a hepatocyte differentiation-inducing effect was examined by real-time RT-PCR. The concentrations of the respective compounds were as described in FIG. 35. Each control sample used was 0.1% DMSO, a solvent for each compound.
By using urea synthesis, a hepatocyte function, as an indicator, a hepatocyte differentiation-inducing effect of each compound was investigated.
The cells treated with each compound were subjected to immunofluorescence analysis of albumin, a hepatocyte marker, to investigate a hepatocyte differentiation-inducing effect. The concentrations of the respective compounds were as described in FIG. 37. Each control sample used was 0.1% DMSO, a solvent for each compound.
By using glycogen synthesis, a hepatocyte function, as an indicator, a hepatocyte differentiation-inducing effect of each compound was investigated.

Wnt/β-catenin signaling = test: Inhibitory effect on Wnt/β-catenin signaling in mesenchymal stem cells (E7-TCF4 luciferase); assay type: cell-based, human; settings: concentration equal to or lower than that of IC-2
Description: A pTCF4-CMVpro-GL4.20 plasmid vector, having 3 copies of TCF4 motifs (CCT TTG ATC) upstream of aCMV promoter in a multiple cloning site of pGL4.20 (Promega Corp., Fitchburg, Wis.), was linearized and stably transfected into UE7T-13 cells to prepare E7-TCF4 cells. Also, a pCMVpro-GL4.20 plasmid vector, having a CMV promoter in a multiple cloning site of pGL4.20, was linearized and stably transfected into UE7T-13 cells. The resulting stable cells (E7-CMV cells) were cultured, like UE7T-13 cells, in 10% FBS/DMEM containing 0.25 μg/mL puromycin.
UE7T-13 cells were used to measure Wnt/β-catenin signaling activity. The concentrations of the respective compounds were as described in FIG. 42. Each control sample used was 0.1% DMSO, a solvent for each compound.
First, 70 to 90% confluent E7-TCF4 cells and E7-CMV cells were harvested and seeded (n=3) at 1.6758×10^4 cells/well of a 24-well plate (9.0×10^3 cells/cm^2). One day after that, each compound was added to the cells and the mixture was cultured at 37° C. Day 4 after the compound addition, the culture medium was changed.
At day 1, 4, or 8 after the compound treatment, the culture medium was discarded, and 100 μL of room temperature 5×Passive Lysis Buffer (PLB), which had been diluted 5-fold with MilliQ water, was added to each well. Next, the plate was shaken at room temperature for 15 min and was then frozen at −30° C. overnight. A Luciferase Assay Substrate was diluted with 10 mL of room temperature Luciferase Assay Buffer II to prepare Luciferase Assay Reagent II (LARII). The frozen PLB lysate samples were thawed and permeabilized for 15 min. Then, 10 μL aliquots were added to wells of a 96-well white plate. While 50 μL aliquots of LARII were each added to each well, luminescence was quantified by using a 1420 multi-label counter ARVO MX to determine firefly luciferase activity.

Compound	growth inhibitory effect on squamous cell carcinoma cells [1]	percentage of CD44-expressing cells [2]	percentage of CD44high cells (CD44high DLD-1 cells)	Wnt/β-catenin signal in a mesenchymal stem cell and differentiation into hepatocytes (Wnt/β-catenin signal)	hepatocyte-inducing effect at low concentration (mesenchymal stem cell)	inhibitory effect on Wnt/β-catenin signaling pathway in mesenchymal stem cells compared with IC-2 (Wnt/β-catenin signaling)
O=C1C(Cc2ccccc2)N2C(=O)CCN(C(=O)NCc3ccccc3)C2CN1Cc1cccc2ccccc12 (stereo not drawn) [IC-2]	exhibited a growth inhibitory effect	71.4%	significantly reduced the percentage of CD44^high cells	inhibit a Wnt/β-catenin signal in a mesenchymal stem cell, thereby inducing differentiation of the mesenchymal stem cell into hepatocytes	–	–
COc1ccc(COc2ccc(CNC(=O)N3CCC(=O)N4C(Cc5ccccc5)C(=O)N(Cc5cccc6ccccc56)CC34)cc2)cc1 (stereo not drawn) [IC-2-OPMB]	–	–	–	–	exerted a hepatocyte-inducing effect	more potent inhibitory effect
